The values that follow come from ChEMBL document CHEMBL4002601, “A triple exon-skipping luciferase reporter assay identifies a new CLK inhibitor pharmacophore” (Bioorg Med Chem Lett, 2017).

In assay [1] the target is Dual specificity protein kinase CLK1 (Homo sapiens, UniProt P49759). The experiment in a line: Inhibition of CLK mediated SF3B1 activation in human SK-MEL-2 cells assessed as MDM2-pre mRNA exon skipping after 4 hrs by luciferase reporter gene assay relative to control. Format: cell-based. To be noted: read-out: EC50.
Sequence of Dual specificity protein kinase CLK1 (P49759 whole entry): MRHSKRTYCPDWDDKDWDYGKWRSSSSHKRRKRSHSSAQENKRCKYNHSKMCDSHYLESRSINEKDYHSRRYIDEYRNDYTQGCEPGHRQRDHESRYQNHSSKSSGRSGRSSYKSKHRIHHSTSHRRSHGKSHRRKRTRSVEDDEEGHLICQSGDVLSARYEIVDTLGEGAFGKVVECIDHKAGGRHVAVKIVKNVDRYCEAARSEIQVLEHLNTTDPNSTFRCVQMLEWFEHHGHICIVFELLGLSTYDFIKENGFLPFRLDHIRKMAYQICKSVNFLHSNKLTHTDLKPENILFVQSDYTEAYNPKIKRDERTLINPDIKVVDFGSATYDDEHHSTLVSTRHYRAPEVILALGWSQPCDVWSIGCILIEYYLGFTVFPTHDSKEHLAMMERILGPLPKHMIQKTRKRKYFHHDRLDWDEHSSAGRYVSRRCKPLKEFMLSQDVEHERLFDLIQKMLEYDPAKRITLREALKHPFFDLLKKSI
Assay [2] deals with Dual specificity protein kinase CLK3 (Homo sapiens, UniProt P49761). The experiment in a line: Inhibition of human CLK3 using ERMRPRKRQGSVRRRV as substrate in presence of [gamma-33P]ATP after 40 mins by scintillation counter method.
Sequence of Dual specificity protein kinase CLK3 (P49761 whole entry): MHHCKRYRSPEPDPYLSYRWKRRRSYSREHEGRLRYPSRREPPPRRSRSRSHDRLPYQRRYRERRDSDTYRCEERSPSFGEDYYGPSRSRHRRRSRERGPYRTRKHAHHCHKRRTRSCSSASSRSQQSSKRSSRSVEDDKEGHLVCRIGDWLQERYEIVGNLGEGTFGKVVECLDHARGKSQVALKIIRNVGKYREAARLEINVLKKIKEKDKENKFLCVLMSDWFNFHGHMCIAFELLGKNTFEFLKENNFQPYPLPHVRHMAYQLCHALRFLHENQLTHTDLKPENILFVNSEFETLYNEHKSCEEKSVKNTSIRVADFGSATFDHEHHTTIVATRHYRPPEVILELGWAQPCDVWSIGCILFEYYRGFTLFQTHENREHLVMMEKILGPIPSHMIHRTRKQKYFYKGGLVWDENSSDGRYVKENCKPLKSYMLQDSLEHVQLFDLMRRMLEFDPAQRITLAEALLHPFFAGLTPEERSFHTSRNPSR
A further assay concerns the target CDK4/Cyclin D3 (Homo sapiens, UniProt P11802). The experiment in a line: Inhibition of human CDK4/cyclinD3 using Histone H1 as substrate in presence of [gamma-33P]ATP after 40 mins by scintillation counter method. It is filed as protein-complex assay.
For the next assay, the target named is CDK6/cyclin D3 (Homo sapiens, UniProt Q00534). The experiment in a line: Inhibition of human CDK6/cyclinD3 using Histone H1 as substrate in presence of [gamma-33P]ATP after 40 mins by scintillation counter method. Format: protein-complex assay.
Sequence of CDK6/cyclin D3 (P30281 whole entry): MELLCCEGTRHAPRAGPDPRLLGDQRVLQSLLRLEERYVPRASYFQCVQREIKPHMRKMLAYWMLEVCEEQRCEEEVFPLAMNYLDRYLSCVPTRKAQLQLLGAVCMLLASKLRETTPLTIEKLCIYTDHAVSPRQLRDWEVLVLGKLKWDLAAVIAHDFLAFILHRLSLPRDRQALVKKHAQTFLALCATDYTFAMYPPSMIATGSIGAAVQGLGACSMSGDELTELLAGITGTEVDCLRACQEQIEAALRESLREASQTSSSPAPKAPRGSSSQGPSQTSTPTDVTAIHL
Sequence of CDK6/cyclin D3 (Q00534 whole entry): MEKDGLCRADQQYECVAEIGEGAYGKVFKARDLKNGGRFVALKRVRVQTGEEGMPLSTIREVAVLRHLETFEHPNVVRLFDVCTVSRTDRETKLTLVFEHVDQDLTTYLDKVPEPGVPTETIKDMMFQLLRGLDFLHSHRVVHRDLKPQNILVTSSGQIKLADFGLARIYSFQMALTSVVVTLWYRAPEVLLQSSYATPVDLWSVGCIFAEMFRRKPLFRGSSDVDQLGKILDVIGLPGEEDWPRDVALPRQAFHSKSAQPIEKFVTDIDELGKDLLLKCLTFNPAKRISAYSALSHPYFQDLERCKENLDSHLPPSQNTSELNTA
Assay [3] deals with Macrophage colony-stimulating factor 1 receptor (Homo sapiens) (UniProt P07333). The experiment in a line: Inhibition of human Fms using KKKSPGEYVNIEFG as substrate in presence of [gamma-33P]ATP at 1 uM after 40 mins by scintillation counter method.
Sequence of Macrophage colony-stimulating factor 1 receptor (Homo sapiens) (P07333 whole entry): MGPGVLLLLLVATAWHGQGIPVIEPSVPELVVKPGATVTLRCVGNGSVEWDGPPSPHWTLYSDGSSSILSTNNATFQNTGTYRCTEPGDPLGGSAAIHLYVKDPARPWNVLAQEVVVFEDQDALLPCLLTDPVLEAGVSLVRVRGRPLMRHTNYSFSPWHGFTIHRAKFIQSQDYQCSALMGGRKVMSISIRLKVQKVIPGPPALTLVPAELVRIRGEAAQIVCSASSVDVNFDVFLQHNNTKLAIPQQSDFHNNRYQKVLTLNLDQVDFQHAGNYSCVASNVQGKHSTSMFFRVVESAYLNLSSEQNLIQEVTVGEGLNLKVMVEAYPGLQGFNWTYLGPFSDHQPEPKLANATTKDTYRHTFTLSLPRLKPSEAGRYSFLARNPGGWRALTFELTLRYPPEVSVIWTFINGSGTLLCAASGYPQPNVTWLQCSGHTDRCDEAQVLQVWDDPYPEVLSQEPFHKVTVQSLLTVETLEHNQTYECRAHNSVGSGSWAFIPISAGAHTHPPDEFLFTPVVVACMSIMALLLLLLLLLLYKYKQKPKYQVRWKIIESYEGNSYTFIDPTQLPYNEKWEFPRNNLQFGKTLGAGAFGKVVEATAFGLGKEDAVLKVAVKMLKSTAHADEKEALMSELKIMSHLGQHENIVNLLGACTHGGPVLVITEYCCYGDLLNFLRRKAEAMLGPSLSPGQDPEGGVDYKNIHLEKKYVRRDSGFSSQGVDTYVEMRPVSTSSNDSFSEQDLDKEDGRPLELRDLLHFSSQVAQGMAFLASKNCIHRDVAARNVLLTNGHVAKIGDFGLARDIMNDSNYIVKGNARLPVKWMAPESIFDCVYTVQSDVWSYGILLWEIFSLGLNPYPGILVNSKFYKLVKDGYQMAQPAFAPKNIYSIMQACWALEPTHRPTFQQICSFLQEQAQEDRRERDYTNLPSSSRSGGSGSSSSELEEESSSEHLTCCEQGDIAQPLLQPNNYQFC

Sequence of CDK4/Cyclin D3 (P11802 whole entry): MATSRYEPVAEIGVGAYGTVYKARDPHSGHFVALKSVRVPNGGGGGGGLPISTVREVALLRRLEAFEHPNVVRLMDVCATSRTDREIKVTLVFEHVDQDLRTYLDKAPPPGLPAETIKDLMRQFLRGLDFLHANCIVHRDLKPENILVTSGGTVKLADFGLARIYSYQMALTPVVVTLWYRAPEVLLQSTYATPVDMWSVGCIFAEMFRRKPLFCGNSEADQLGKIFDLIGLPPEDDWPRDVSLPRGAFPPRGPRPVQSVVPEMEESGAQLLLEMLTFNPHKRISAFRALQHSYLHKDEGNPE
Sequence of CDK4/Cyclin D3 (P30281 whole entry, further chain): as the sequence (P30281 whole entry) above

For the compound `CC(C)n1cnc2c(Nc3cccc(Cl)c3)nc(N[C@H]3CCCC[C@@H]3N)nc21`, the EC50 in assay [1] is 11.7 µM. The IC50 (in assay [2]; at CDK4/Cyclin D3; on CDK6/cyclin D3) was above 1 µM each time. In assay [3], the inhibition is -1%.

Turning to `CC(C)n1cnc2c(Nc3cccc(Cl)c3)nc(N[C@@H]3CCCC[C@@H]3N)nc21`, the EC50 in assay [1] came out at 4.3 µM. Moreover, the IC50 in assay [2] was above 1 µM; at CDK4/Cyclin D3, 0.541 µM; at CDK6/cyclin D3, above 1 µM.

In the case of `CC(C)n1cnc2c(Nc3cc(N)cc(Cl)c3)nc(N[C@@H]3CCCC[C@@H]3N)nc21` (racemic), in assay [3], the inhibition was determined as 9%.
